Data from patent US7683040B2, “Intranasal formulation of rotigotine” (SRZ Properties, Inc., priority 2003, dated 2010).
One block for each molecule: values may come before it.

Legend:
[1] = (maximum) solubility in aqueous solution with α- or β-cyclodextrin, isocratic HPLC; format: physicochemical; conditions: aqueous solution and aqueous solutions containing α- or β-cyclodextrin
Description: The concentration was determined by isocratic HPLC analysis. HPLC column LiChroCART 75×4 mm, Superspher 60 RP-select B 5 μm (Merck), column temperature: 30° C., mobile phase: water/acetonitrile/methane sulfonic acid (65/35/0.05 v/v/v), flow rate: 2 mL/min, injection volume: 50 μl, detection at 220 nm, retention time approx. 1.5 min. The concentration was determined by use of an external reference solution with known concentration.

[2] = rat, cited from earlier work
[3] = in-vitro permeation assay through nasal mucosa; format: in vitro ADME, cattle
Text: The intranasal formulation according to the present invention may preferably further contain a viscosity-enhancing substance. Glycerol and carboxymethylcellulose (CMC) are particularly useful as viscosity enhancers, but the present invention is not limited thereto. Glycerol is particularly preferred as it also has a soothing effect on the nasal mucosa. The viscosity of the intranasal formulations of the present invention should preferably be between 0.8 and 1.5 mm^2/s, most preferably around 1.2 mm^2/s. The viscosity can be determined by an Ubbelohde capillary viscosimeter with suspending ball-level for the determination of kinematic viscosity according to DIN 51562, part 1.
The pH-value of the formulation of the present invention should preferably in the range of 4.5 to 6.5, more preferably around 5.8±0.3. […] The pH value of the intranasal formulation can be adjusted during or after its preparation with a pharmaceutically acceptable acid or base. Most preferably, citric acid is used for this purpose.

[4] = comparative storage test in aqueous rotigotine solution with/without α-cyclodextrin; format: physicochemical; conditions: solution of 1.6 mg/ml with α-cyclodextrin, storage at 60° C. for 8 weeks
Text: The stabilizing effect of α-cyclodextrin becomes also apparent from a comparative test in an aqueous rotigotine solution.

[5] = cited from earlier work
cilia = conditions: cited from earlier work

solubility (in words) [1]: practically insoluble | rotigotine uptake through nasal mucosa ([3]; formulation pH 4.5): significantly lower rotigotine uptake | drug uptake through nasal mucosa ([3]; formulation pH 5.8): optimal drug uptake | rotigotine uptake through nasal mucosa ([3]; formulation pH 6.5): significantly lower rotigotine uptake | uptake of rotigotine through the nasal mucosa ([3]; glycerol in the formulation): increase the uptake | decrease in the rotigotine concentration [4]: -0.07 mg/mL
Molecule: CCCN(CCc1cccs1)[C@H]1CCc2c(O)cccc2C1 [Rotigotine base, 5,6,7,8-tetrahydro-6-[propyl-[2-(2-thienyl)ethyl]amino]-1-naphthalenol]
bioavailability ([2]; buccal, nasal or rectal administration compared with oral dosing, solution in 1:1 PEG 400 and water): improved bioavailability | bioavailability for the nasal dosing ([2]; compared with results described for other lipophilic drugs): somewhat disappointing

Molecule: CN1CCc2cccc3c2[C@H]1Cc1ccc(O)c(O)c1-3 [apomorphine]
oxidation in solution [5]: subject to rapid oxidation

Molecule: benzalkonium chloride
ciliary toxicity (cilia): significant ciliary toxicity
